Laboratory results reported in the supplement of paper PMC12076712.

Legend:
Experiment in all cases: pIC50, kinobeads binding competition
[1] = molecular target: T1, MERTK (UniProt Q12866)
T1 sequence (whole entry): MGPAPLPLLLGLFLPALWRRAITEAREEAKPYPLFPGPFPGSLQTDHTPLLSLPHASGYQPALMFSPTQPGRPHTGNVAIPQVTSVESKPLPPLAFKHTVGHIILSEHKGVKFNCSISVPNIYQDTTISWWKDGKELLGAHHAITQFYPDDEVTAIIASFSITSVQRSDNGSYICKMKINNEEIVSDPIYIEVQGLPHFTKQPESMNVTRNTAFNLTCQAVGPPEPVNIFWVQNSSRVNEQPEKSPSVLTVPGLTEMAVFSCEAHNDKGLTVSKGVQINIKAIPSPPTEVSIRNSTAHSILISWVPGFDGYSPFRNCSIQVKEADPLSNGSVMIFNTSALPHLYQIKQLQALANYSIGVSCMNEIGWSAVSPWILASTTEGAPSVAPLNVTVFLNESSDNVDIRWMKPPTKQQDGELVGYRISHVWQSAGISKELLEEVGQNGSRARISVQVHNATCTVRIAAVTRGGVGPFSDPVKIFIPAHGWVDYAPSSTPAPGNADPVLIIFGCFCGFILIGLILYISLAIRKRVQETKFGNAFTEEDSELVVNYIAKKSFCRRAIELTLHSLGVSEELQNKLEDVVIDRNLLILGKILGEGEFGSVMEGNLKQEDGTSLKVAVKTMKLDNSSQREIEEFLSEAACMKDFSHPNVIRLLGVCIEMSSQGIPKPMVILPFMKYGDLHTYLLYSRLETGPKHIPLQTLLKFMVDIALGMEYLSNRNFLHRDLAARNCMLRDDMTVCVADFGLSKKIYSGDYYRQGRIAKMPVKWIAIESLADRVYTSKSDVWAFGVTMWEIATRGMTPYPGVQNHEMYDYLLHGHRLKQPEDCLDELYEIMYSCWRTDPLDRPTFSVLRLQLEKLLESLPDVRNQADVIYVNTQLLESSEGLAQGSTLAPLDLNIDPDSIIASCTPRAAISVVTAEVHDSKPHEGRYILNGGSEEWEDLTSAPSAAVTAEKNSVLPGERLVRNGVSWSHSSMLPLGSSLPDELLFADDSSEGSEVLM
Summary of the method: (§1)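 Fold changes relative to vehicle, from biological duplicates, were fitted with logistic dose-response models in the R drc package to give pIC50. These fold changes came from TMT10 LC-MS/MS quantification of digested Kinobeads-bound proteins. Compound was applied at nine concentrations (top 30 μM) either to live Jurkat cells in 1:4 steps for 60 min at 37 °C before lysis, or to Jurkat lysate or a 1:1:1:1 HEK293/K-562/HepG2/placenta lysate mix in 1:5 steps for 60 min at 4 °C.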

[2] = molecular target: EPHA7 (UniProt Q15375); details: cell material: Lysate mix
Summary of the method: as §1

[3] = molecular target: UniProt O96017
Summary of the method: as §1

[4] = molecular target: T2, UniProt Q8TF76
T2 sequence (whole entry): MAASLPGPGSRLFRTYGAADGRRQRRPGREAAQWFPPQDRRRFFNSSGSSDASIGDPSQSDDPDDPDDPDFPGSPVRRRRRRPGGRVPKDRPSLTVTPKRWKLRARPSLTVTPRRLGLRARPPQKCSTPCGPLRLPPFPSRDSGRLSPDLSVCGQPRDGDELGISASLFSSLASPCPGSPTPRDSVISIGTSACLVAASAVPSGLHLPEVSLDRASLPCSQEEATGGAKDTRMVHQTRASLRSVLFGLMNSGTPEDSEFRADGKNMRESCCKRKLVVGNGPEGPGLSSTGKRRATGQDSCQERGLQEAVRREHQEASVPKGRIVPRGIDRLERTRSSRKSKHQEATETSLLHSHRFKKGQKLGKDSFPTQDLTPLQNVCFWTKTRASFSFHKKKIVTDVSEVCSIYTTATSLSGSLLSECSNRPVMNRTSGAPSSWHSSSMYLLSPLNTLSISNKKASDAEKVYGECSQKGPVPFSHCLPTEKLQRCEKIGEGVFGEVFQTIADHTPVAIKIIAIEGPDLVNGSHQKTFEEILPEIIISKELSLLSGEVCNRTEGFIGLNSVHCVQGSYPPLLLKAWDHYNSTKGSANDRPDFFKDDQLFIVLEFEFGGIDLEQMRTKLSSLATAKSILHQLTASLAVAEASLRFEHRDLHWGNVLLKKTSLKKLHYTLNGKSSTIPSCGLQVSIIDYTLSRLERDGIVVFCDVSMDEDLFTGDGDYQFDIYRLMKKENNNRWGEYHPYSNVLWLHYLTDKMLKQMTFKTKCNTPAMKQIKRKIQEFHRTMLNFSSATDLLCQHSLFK
Summary of the method: as §1

[5] = molecular target: IGF1R (UniProt P08069)
Summary of the method: as §1

[6] = molecular target: T3, PKMYT1 (UniProt Q99640)
T3 sequence (whole entry): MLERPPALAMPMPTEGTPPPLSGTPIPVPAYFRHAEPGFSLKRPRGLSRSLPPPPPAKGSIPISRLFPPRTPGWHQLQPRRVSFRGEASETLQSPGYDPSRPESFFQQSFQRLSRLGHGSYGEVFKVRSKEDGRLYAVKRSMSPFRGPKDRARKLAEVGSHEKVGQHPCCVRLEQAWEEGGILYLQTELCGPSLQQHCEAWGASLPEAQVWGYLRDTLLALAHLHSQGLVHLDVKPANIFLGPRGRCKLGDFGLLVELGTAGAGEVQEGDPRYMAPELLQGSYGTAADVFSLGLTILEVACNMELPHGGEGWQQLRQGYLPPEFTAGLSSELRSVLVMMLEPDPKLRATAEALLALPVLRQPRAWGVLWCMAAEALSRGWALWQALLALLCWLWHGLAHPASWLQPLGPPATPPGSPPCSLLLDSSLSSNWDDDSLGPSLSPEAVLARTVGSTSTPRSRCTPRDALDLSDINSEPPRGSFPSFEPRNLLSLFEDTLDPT
Summary of the method: as §1

IGF1R, sequence (P08069 whole entry, looked up): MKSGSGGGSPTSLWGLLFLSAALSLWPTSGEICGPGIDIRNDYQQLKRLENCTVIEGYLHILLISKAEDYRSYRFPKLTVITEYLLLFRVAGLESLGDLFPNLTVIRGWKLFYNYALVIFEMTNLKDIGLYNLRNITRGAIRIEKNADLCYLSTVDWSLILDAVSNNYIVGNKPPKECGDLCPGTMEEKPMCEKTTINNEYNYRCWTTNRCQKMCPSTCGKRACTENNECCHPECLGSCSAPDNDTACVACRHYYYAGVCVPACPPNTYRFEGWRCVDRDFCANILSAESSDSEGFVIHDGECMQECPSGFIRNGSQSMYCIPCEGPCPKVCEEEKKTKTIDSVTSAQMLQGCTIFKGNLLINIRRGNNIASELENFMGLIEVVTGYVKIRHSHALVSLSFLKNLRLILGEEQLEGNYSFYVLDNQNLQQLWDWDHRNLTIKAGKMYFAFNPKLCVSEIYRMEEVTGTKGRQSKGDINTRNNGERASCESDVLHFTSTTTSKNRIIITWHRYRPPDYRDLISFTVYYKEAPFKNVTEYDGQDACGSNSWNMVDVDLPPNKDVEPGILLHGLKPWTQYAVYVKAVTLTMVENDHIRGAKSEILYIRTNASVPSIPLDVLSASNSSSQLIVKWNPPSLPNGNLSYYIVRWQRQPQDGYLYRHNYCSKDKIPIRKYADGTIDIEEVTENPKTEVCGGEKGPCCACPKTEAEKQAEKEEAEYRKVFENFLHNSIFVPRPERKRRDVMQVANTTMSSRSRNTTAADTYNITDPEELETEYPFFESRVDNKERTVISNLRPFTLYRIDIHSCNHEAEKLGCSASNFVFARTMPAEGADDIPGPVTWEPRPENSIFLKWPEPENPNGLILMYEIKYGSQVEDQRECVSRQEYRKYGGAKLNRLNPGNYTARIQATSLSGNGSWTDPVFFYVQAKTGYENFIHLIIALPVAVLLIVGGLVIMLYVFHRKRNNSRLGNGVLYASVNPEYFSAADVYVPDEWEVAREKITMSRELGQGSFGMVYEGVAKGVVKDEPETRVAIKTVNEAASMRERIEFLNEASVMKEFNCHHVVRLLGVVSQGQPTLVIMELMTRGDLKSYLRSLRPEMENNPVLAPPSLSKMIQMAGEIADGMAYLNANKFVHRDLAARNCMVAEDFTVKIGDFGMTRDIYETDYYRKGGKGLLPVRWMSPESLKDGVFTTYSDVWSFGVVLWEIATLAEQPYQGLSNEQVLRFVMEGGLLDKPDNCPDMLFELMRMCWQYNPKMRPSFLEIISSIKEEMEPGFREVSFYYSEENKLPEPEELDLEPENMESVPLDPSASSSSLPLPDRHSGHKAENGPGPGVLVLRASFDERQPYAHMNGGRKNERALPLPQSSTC
EPHA7, sequence (Q15375 whole entry, looked up): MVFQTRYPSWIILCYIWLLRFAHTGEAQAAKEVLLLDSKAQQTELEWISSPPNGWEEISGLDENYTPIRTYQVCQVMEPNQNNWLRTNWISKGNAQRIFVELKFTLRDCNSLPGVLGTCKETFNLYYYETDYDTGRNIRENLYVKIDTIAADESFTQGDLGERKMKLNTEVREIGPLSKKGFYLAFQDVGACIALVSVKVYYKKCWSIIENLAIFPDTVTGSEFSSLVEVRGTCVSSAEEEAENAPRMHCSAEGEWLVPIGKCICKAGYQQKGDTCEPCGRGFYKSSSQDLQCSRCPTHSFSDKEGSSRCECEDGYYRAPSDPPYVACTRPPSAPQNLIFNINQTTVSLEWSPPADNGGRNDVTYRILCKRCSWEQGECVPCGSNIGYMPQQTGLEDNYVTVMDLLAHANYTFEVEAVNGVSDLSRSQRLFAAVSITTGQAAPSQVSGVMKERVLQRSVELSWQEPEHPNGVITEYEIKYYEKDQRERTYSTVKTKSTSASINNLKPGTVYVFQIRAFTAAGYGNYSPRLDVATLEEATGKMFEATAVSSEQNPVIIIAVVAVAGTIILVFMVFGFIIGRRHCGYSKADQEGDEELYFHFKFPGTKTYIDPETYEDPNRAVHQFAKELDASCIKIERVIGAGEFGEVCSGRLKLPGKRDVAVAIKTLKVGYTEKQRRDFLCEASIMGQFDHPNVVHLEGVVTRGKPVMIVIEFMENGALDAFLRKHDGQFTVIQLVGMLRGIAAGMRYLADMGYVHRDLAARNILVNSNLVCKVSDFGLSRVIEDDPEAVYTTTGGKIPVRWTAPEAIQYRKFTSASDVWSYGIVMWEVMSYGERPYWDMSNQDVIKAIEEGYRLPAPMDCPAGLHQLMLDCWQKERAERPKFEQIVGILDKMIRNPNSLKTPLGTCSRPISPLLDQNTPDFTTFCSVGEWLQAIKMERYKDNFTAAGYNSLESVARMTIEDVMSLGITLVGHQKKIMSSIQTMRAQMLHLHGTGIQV
UniProt O96017, sequence (O96017 whole entry): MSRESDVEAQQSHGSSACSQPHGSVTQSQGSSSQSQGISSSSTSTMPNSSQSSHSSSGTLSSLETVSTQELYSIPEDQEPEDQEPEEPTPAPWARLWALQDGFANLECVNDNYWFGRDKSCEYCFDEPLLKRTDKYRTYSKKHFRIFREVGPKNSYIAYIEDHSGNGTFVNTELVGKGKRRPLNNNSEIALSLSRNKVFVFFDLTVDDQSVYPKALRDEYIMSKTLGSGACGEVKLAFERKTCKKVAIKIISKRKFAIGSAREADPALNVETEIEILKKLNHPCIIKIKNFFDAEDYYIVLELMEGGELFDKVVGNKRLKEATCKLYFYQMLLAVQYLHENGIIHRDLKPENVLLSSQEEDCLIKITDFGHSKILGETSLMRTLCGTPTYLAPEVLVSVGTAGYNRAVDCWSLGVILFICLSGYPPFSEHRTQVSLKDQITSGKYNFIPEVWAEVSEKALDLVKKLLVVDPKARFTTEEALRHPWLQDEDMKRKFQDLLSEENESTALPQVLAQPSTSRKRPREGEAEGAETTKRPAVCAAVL

Work on `O=C(NCCNC(=O)c1cc(Nc2cc(C3CC3)[nH]n2)nc(N2CCN(Cc3ccc(S(=O)(=O)F)cc3)CC2)n1)OC1CC/C=C/CCC1` (centres undefined) yielded a pIC50 ([1]; cell material: Jurkat cells) of 6.04, a pIC50 ([1]; cell material: Jurkat lysate) of under 4.52 and a pIC50 ([1]; cell material: Lysate mix) of under 4.52. The pIC50 [2] was under 4.52, the pIC50 ([3]; cell material: Jurkat cells) was 5.78 and the pIC50 ([3]; cell material: Jurkat lysate) was 4.92. It also gave a pIC50 ([3]; cell material: Lysate mix) of 4.71, a pIC50 ([4]; cell material: Jurkat cells) of under 4.52 and a pIC50 ([4]; cell material: Jurkat lysate) of under 4.52. The pIC50 ([4]; cell material: Lysate mix) was under 4.52, the pIC50 ([5]; cell material: Jurkat cells) was under 4.52 and the pIC50 ([5]; cell material: Jurkat lysate) was under 4.52. For the same compound, the pIC50 ([5]; cell material: Lysate mix) was under 4.52, the pIC50 ([6]; cell material: Jurkat lysate) was under 4.52 and the pIC50 ([6]; cell material: Lysate mix) was under 4.52.
`Cc1cc(Nc2cc(C(=O)NCCNC(=O)OC3CC/C=C/CCC3)nc(N3CCN(Cc4ccc(S(=O)(=O)F)cc4)CC3)n2)n[nH]1` (centres undefined) showed a pIC50 ([1]; cell material: Lysate mix) of under 4.52, a pIC50 [2] of under 4.52 and a pIC50 ([3]; cell material: Lysate mix) of 5.23. It also gave a pIC50 ([4]; cell material: Lysate mix) of under 4.52, a pIC50 ([5]; cell material: Lysate mix) of under 4.52 and a pIC50 ([6]; cell material: Lysate mix) of under 4.52.
`CCNC(=O)c1cc(Nc2cc(C3CC3)[nH]n2)nc(N2CCN(Cc3ccc(S(=O)(=O)F)cc3)CC2)n1` was tested, and the pIC50 ([1]; cell material: Lysate mix) was 4.94, the pIC50 [2] was under 4.52 and the pIC50 ([3]; cell material: Lysate mix) was 4.75. It also gave a pIC50 ([4]; cell material: Lysate mix) of under 4.52, a pIC50 ([5]; cell material: Lysate mix) of under 4.52 and a pIC50 ([6]; cell material: Lysate mix) of under 4.52.
Work on `CCNC(=O)c1cc(Nc2cc(C)[nH]n2)nc(N2CCN(Cc3ccc(S(=O)(=O)F)cc3)CC2)n1` yielded a pIC50 ([1]; cell material: Lysate mix) of under 4.52, a pIC50 [2] of under 4.52 and a pIC50 ([3]; cell material: Lysate mix) of 4.92. It also gave a pIC50 ([4]; cell material: Lysate mix) of under 4.52, a pIC50 ([5]; cell material: Lysate mix) of under 4.52 and a pIC50 ([6]; cell material: Lysate mix) of under 4.52.
For `C#CCNC(=O)c1cc(Nc2cc(C3CC3)[nH]n2)nc(N2CCN(Cc3ccc(S(=O)(=O)F)cc3)CC2)n1`, the pIC50 ([1]; cell material: Jurkat cells) was 6.29, the pIC50 ([1]; cell material: Jurkat lysate) was under 4.52 and the pIC50 ([1]; cell material: Lysate mix) was 4.84. The pIC50 [2] was under 4.52, the pIC50 ([3]; cell material: Jurkat cells) was 5.76 and the pIC50 ([3]; cell material: Jurkat lysate) was 4.88. The pIC50 ([3]; cell material: Lysate mix) was 4.92, the pIC50 ([4]; cell material: Jurkat cells) was 5.26 and the pIC50 ([4]; cell material: Jurkat lysate) was under 4.52. It also gave a pIC50 ([4]; cell material: Lysate mix) of under 4.52, a pIC50 ([5]; cell material: Jurkat lysate) of under 4.52 and a pIC50 ([5]; cell material: Lysate mix) of under 4.52. The pIC50 ([6]; cell material: Jurkat cells) was 5.67, the pIC50 ([6]; cell material: Jurkat lysate) was under 4.52 and the pIC50 ([6]; cell material: Lysate mix) was under 4.52.
Compound `C#CCNC(=O)c1cc(Nc2cc(C)[nH]n2)nc(N2CCN(Cc3ccc(S(=O)(=O)F)cc3)CC2)n1` has a pIC50 ([1]; cell material: Lysate mix) of under 4.52, a pIC50 [2] of under 4.52 and a pIC50 ([3]; cell material: Lysate mix) of 4.98. It also gave a pIC50 ([4]; cell material: Lysate mix) of under 4.52, a pIC50 ([5]; cell material: Lysate mix) of under 4.52 and a pIC50 ([6]; cell material: Lysate mix) of under 4.52.
